Experimental data from patent US7166581B1, “Treatment of chemotherapeutic agent and antiviral agent toxicity with acylated pyrimidine nucleosides” (Wellstat Therapeutics Corporation, priority 1987, dated 2007).

Assays:
[1] = tested on: hematopoietic system (5-FU toxicity); assay: Acyl derivatives of uridine i.p. vs bone marrow toxicity of 5-FU (Example 3); type: in vivo, female Balb/C mice; settings: for HCT % / Lym / Neut / RBC / WBC: eleven days after 5-FU
Procedure: Ninety-eight female Balb/C mice weighing approximately 20 grams each were given a one-time 150 mg/kg injection (i.p.) of 5-FU at 1 p.m. on the initial day of the study. […] All of these doses are equimolar, and were administered in a volume of 0.4 ml by i.p. injection. The groups were treated at 3:30, 6:00, and 8:30 p.m. on the initial day with their respective agents. […] On days seven and eleven following 5-FU administration, blood (0.2–0.3 ml) was collected from seven mice in each group by retro-orbital bleeding into EDTA for subsequent differential blood cell counting. Mice were sacrificed by cervical dislocation; their right femurs removed and the contents expelled for cell counting; and their spleens removed and weighed.

[2] = tested on: hematopoietic system (5-FU toxicity); assay: Oral TAU vs uridine rescue from 5-FU hematologic toxicity (Example 1); type: in vivo, female Balb/C mice
Procedure: Forty-five female Balb/C mice (20 grams each) were given 5-fluorouracil (150 mg/kg, i.p.) at 12:00 noon on the initial day of the experiment. These animals were then divided into 5 groups: control (water, p.o.), oral uridine at 400 mg/kg/dose, oral uridine at 800 mg/kg/dose, parenteral (i.p.) uridine at 400 mg/kg/dose, and oral TAU at 500 mg/kg/dose.
Two hours after administration of 5-FU, the rescue treatments with uridine or triacetyluridine were begun. Groups received their designated treatment at 2:00 p.m., 4:00 p.m., and 6:00 p.m. on the day of 5-FU administration, and at 9 a.m., 11:00 a.m., 1:00 p.m., 3:00 p.m. and 5:00 p.m. on the following day. Each dose of uridine or TAU was administered in 0.2 ml of water by gavage or in 0.2 ml of saline by i.p. injection, as appropriate.
Mice were sacrificed by cervical dislocation; femurs were removed, and their cell contents were expelled for counting; spleens were also removed and weighed. […]

[3] = tested on: CD8F1 spontaneous mammary adenocarcinoma; assay: TAU/uridine rescue with 5-FU alone in tumor-bearing mice (Example 5); type: in vivo
Procedure: Sixty CD8F1 (BALB/C×[…]) female mice with first generation transplants of CD8F1 spontaneous mammary adenocarcinoma were treated with a weekly chemotherapy regimen which included a single dose of 5-FU (150 mg/kg) followed by various rescue strategies. The average tumor size was 157 mg at the start of the chemotherapy. The weekly chemotherapy course was completed three times.
In order to evaluate the various rescue therapies, the animals were divided into six groups of ten animals each as follows: […]

[4] = tested on: CD8F1 spontaneous breast tumors; assay: TAU/uridine rescue with PALA-MTX-5-FU-LV combination chemotherapy in tumor-bearing mice (Example 6); type: in vivo, male CD8F1 mice; settings: PALA-MTX-5-FU-LV weekly x3
Procedure: Forty male CD8F1 mice with transplanted CD8F1 spontaneous breast tumors (initial tumor weight of 155 mg) were treated weekly with the following regimen:
In order to evaluate and compare the efficacy of TAU and uridine, the mice were divided into four groups of ten animals each.
Saline, uridine, or TAU was administered every eight hours for a total of 5 treatments starting two hours after each weekly dose of 5-FU. This weekly regimen was repeated for three successive weeks. One week after the third course of chemotherapy regimen, mortality in each group was assessed and, where a sufficient number of animals survived, body weight and tumor weight were also measured.

[5] = day seven after 5-FU, TAU 455 mg/kg/treatment i.p.
[6] = 7 days after 5-FU 150 mg/kg i.p., oral, Urd 400 or equimolar TAU 500 mg/kg/dose
[7] = 7 days after 5-FU, oral, Urd 400 or equimolar TAU 500 mg/kg/dose
[8] = 11 days after 5-FU, oral, Urd 400 or equimolar TAU 500 mg/kg/dose
[9] = 5-FU 150 mg/kg i.p. weekly x3 + oral uridine 5,000 or equimolar TAU 7,582 mg/kg
[10] = oral uridine 4,000 or equimolar TAU 6,066 mg/kg every 8 h x5
[11] = 7 days after 5-FU, Urd 400 mg/kg/dose i.p.
[12] = 7 days after 5-FU, Urd 800 mg/kg/dose oral
[13] = 11 days after 5-FU, Urd 400 mg/kg/dose i.p.
[14] = 11 days after 5-FU, Urd 800 mg/kg/dose oral
[15] = 5-FU 150 mg/kg i.p. weekly x3 + uridine 3,500 mg/kg i.p.

Compound: CC(=O)OC[C@H]1O[C@@H](n2ccc(=O)[nH]c2=O)[C@H](OC(C)=O)[C@@H]1OC(C)=O [TAU, triacetyluridine]
- bone marrow cellularity [1, 5]: 4.50±77 ×10^3 per microliter
- increase of bone marrow cellularity over control values [1, 5]: 40%
- HCT % ([1]; equimolar i.p. doses): 35.01 ± 1.2%
- Lym ([1]; equimolar i.p. doses): 5.6 ± .4 K/μl
- Neut ([1]; equimolar i.p. doses): .55 ± K/μl
- RBC ([1]; equimolar i.p. doses): 7.35 ± .2 M/μl
- WBC ([1]; equimolar i.p. doses): 6.23 ± .55 K/μl
- WBC [2, 6]: 5.9 ± .4 K/μl
- Lymphocytes [2, 7]: 4.72 ± .36 K/μl
- Marrow cell counts [2, 7]: 3.0 ± .5 × 10^6 × 10^6/femur
- Neutrophils [2, 7]: 1.20 K/μl
- Platelets [2, 7]: 723 K/μl
- RBC [2, 7]: 8.27 ± .16 M/μl
- Spleen weight [2, 7]: 78 ± 3.5 mg
- Lymphocytes [2, 8]: 3.29 ± .36 K/μl
- Neutrophils [2, 8]: 1.89 K/μl
- Platelets [2, 8]: 1446 K/μl
- RBC [2, 8]: 8.05 M/μl
- Spleen weight [2, 8]: 143 ± 11 mg
- WBC [2, 8]: 5.4 ± .5 K/μl
- Average Final Tumor Weight [3, 9]: 1,013 mg
- Mortality [3, 9]: 1/10
- Average Final Tumor Weight ([4]; oral TAU 6,066 mg/kg): 162 mg
- Mortality [4, 10]: 1/10

Compound: O=c1ccn([C@@H]2O[C@H](CO)[C@@H](O)[C@H]2O)c(=O)[nH]1 [Urd, uridine]
- Spleen weights ([1]; day eleven after 5-FU, equimolar i.p. doses, in mg): 121.6±9.7
- Spleen weight ([1]; day seven after 5-FU 150 mg/kg i.p., i.p. doses equimolar to uridine 300 mg/kg/treatment): 80.4 ± 7.8 mg
- Platelet counts ([1]; day seven after 5-FU, equimolar i.p. doses): 785.3±57.5 ×10^3 per microliter
- HCT % ([1]; equimolar i.p. doses): 34.67 ± 0.9%
- Lym ([1]; equimolar i.p. doses): 4.6 ± .4 K/μl
- Neut ([1]; equimolar i.p. doses): .60 ± K/μl
- RBC ([1]; equimolar i.p. doses): 7.32 ± .2 M/μl
- WBC ([1]; equimolar i.p. doses): 5.20 ± .47 K/μl
- WBC [2, 6]: 4.4 ± .5 K/μl
- Lymphocytes [2, 11]: 3.80 ± .30 K/μl
- Marrow cell counts [2, 11]: 5.0 ± .7 × 10^6 × 10^6/femur
- Neutrophils [2, 11]: 0.83 ± .24 K/μl
- Platelets [2, 11]: 773 K/μl
- RBC [2, 11]: 8.06 ± .05 M/μl
- Spleen weight [2, 11]: 78 ± 5.5 mg
- WBC [2, 11]: 4.6 ± .4 K/μl
- Lymphocytes [2, 12]: 3.76 ± .27 K/μl
- Marrow cell counts [2, 12]: 2.9 ± .9 × 10^6 × 10^6/femur
- Neutrophils [2, 12]: 0.88 ± .22 K/μl
- Platelets [2, 12]: 646 K/μl
- RBC [2, 12]: 8.24 ± .26 M/μl
- Spleen weight [2, 12]: 74 ± 6.4 mg
- WBC [2, 12]: 4.6 ± .4 K/μl
- Lymphocytes [2, 7]: 3.01 ± .77 K/μl
- Marrow cell counts [2, 7]: 1.6 ± .2 × 10^6 × 10^6/femur
- Neutrophils [2, 7]: 0.48 ± .23 K/μl
- Platelets [2, 7]: 434 K/μl
- RBC [2, 7]: 7.66 ± .12 M/μl
- Spleen weight [2, 7]: 74 ± 2.4 mg
- Lymphocytes [2, 13]: 3.84 ± .38 K/μl
- Neutrophils [2, 13]: 1.20 ± .21 K/μl
- Platelets [2, 13]: 1706 K/μl
- RBC [2, 13]: 7.78 ± .22 M/μl
- Spleen weight [2, 13]: 104 ± 6 mg
- WBC [2, 13]: 5.1 ± .5 K/μl
- Lymphocytes [2, 14]: 4.07 ± .38 K/μl
- Neutrophils [2, 14]: 0.82 ± .19 K/μl
- Platelets [2, 14]: 2127 K/μl
- RBC [2, 14]: 7.33 ± .16 M/μl
- Spleen weight [2, 14]: 99 ± 6 mg
- WBC [2, 14]: 4.9 ± .4 K/μl
- Lymphocytes [2, 8]: 3.65 ± .27 K/μl
- Neutrophils [2, 8]: 0.84 ± .19 K/μl
- Platelets [2, 8]: 1940 K/μl
- RBC [2, 8]: 7.44 ± .14 M/μl
- Spleen weight [2, 8]: 103 ± 15 mg
- WBC [2, 8]: 4.6 ± .5 K/μl
- Average Final Tumor Weight [3, 9]: 896 mg
- Mortality [3, 9]: 0/10
- Average Final Tumor Weight [3, 15]: 1,604 mg
- Mortality [3, 15]: 1/10
- Mortality [4, 10]: 5/10
- Average Final Tumor Weight ([4]; uridine 3,500 mg/kg i.p.): 110 mg
- Mortality ([4]; uridine 3,500 mg/kg i.p. every 8 h x5): 0/10
